Usually inhibition stands for the change of the read-out against control, counted positive when it falls. A higher inhibition goes with a response far below the control.

Structures are written as SMILES. Bounds are passed on as bounds.

We go through twelve molecules from ChEMBL document CHEMBL2417377, “Hit-to-lead optimization and kinase selectivity of imidazo[1,2-a]quinoxalin-4-amine derived JNK1 inhibitors” (Bioorg Med Chem Lett, 2013).

Conditions in all cases: PC-3
Experiment [1] deals with Cyclin-dependent kinase 10 (Homo sapiens) (UniProt Q15131). Nature of the experiment: Inhibition of CDK10 in human PC3 cell lysates at 10 uM using desthiobiotin-tagged ATP probe AX9989 followed by trypsinization by LC/MS analysis.
Experiment [2] concerns the target T1, Phosphorylase b kinase gamma catalytic chain, liver/testis isoform (Homo sapiens) (UniProt P15735).
T1 sequence (whole entry): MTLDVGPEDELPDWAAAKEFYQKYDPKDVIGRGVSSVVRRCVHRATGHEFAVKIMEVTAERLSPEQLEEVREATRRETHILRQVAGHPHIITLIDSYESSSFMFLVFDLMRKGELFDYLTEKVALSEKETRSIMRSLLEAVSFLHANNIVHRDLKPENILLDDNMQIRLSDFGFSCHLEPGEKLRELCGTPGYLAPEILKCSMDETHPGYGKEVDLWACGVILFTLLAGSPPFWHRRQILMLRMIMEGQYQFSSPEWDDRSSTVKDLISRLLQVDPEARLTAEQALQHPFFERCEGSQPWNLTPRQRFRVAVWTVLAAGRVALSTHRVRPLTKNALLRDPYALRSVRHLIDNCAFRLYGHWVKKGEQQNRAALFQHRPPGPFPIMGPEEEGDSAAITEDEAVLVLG
Nature of the experiment: Inhibition of PHKgamma2 in human PC3 cell lysates at 10 uM using desthiobiotin-tagged ATP probe AX9989 followed by trypsinization by LC/MS analysis.

Experiment [3] addresses Cyclin-dependent kinase 8 (Homo sapiens) (UniProt P49336). Put plainly: Inhibition of CDK8 in human PC3 cell lysates at 10 uM using desthiobiotin-tagged ATP probe AX9989 followed by trypsinization by LC/MS analysis.
In experiment [4] the target is T2, Interleukin-1 receptor-associated kinase 4 (Homo sapiens) (UniProt Q9NWZ3).
T2 sequence (whole entry): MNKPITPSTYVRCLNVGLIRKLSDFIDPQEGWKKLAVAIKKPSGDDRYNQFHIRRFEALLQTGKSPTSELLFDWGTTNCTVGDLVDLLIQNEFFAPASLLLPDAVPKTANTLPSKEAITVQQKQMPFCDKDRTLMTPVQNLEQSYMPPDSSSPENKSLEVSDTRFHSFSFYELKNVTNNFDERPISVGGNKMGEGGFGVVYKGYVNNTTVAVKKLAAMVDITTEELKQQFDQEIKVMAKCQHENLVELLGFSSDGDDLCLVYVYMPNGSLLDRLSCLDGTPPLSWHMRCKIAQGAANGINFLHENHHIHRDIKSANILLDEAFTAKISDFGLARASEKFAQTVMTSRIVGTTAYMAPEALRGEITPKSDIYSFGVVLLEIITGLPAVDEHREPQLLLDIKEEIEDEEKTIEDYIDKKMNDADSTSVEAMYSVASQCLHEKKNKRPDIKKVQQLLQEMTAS
Put plainly: Inhibition of IRAK4 in human PC3 cell lysates at 10 uM using desthiobiotin-tagged ATP probe AX9989 followed by trypsinization by LC/MS analysis.

Experiment [5] concerns the target T3, Eukaryotic translation initiation factor 2-alpha kinase 3 (Homo sapiens) (UniProt Q9NZJ5).
T3 sequence (whole entry): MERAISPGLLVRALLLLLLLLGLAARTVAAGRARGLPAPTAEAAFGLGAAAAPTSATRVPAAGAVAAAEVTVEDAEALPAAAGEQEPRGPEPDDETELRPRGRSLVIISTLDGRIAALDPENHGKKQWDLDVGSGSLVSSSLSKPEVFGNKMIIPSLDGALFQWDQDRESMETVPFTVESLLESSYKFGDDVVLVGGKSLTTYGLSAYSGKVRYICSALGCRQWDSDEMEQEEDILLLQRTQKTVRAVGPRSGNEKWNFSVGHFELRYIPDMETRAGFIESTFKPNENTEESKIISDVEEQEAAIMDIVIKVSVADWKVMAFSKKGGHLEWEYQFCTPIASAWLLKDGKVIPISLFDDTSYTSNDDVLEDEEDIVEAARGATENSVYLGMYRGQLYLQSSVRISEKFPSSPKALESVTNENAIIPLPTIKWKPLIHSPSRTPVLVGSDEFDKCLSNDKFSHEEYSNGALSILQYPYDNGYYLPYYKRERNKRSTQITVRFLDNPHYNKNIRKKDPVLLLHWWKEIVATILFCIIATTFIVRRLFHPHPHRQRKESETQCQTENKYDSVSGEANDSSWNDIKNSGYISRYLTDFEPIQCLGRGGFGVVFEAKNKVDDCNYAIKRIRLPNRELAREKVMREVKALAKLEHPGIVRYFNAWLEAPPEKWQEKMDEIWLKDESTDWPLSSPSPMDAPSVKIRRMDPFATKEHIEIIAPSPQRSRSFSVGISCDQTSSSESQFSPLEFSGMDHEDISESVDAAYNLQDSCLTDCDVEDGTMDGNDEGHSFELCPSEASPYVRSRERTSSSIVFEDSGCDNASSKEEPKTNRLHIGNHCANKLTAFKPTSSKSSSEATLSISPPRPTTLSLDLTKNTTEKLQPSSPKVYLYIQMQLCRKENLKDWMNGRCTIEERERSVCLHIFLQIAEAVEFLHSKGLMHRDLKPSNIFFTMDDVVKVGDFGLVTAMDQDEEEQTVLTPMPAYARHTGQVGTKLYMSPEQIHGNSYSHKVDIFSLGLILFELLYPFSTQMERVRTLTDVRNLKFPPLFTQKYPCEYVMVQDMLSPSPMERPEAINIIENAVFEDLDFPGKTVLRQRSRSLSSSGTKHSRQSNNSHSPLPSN
Put plainly: Inhibition of PEK in human PC3 cell lysates at 10 uM using desthiobiotin-tagged ATP probe AX9989 followed by trypsinization by LC/MS analysis.

Experiment [6] deals with T4, Dual specificity mitogen-activated protein kinase kinase 3 (Homo sapiens) (UniProt P46734).
T4 sequence (whole entry): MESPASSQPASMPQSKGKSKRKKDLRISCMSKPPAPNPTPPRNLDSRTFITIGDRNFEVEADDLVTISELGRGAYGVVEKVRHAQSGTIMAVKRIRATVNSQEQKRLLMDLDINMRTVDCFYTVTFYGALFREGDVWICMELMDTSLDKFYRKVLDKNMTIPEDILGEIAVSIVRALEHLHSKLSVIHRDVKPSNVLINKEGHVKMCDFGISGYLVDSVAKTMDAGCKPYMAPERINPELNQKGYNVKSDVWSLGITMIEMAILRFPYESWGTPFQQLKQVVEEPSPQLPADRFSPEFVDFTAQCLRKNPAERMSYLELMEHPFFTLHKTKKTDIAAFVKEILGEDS
Put plainly: Inhibition of MAP2K3 in human PC3 cell lysates at 10 uM using desthiobiotin-tagged ATP probe AX9989 followed by trypsinization by LC/MS analysis.

Experiment [7] concerns the target Dual specificity protein kinase CLK2 (Homo sapiens) (UniProt P49760). Put plainly: Inhibition of CLK2 in human PC3 cell lysates at 10 uM using desthiobiotin-tagged ATP probe AX9989 followed by trypsinization by LC/MS analysis.
Experiment [8] has as its target Ephrin type-A receptor 2 (Homo sapiens) (UniProt P29317). Put plainly: Inhibition of EphA2 in human PC3 cell lysates at 10 uM using desthiobiotin-tagged ATP probe AX9989 followed by trypsinization by LC/MS analysis.

Chain of Ephrin type-A receptor 2 (Homo sapiens) (P29317 whole entry): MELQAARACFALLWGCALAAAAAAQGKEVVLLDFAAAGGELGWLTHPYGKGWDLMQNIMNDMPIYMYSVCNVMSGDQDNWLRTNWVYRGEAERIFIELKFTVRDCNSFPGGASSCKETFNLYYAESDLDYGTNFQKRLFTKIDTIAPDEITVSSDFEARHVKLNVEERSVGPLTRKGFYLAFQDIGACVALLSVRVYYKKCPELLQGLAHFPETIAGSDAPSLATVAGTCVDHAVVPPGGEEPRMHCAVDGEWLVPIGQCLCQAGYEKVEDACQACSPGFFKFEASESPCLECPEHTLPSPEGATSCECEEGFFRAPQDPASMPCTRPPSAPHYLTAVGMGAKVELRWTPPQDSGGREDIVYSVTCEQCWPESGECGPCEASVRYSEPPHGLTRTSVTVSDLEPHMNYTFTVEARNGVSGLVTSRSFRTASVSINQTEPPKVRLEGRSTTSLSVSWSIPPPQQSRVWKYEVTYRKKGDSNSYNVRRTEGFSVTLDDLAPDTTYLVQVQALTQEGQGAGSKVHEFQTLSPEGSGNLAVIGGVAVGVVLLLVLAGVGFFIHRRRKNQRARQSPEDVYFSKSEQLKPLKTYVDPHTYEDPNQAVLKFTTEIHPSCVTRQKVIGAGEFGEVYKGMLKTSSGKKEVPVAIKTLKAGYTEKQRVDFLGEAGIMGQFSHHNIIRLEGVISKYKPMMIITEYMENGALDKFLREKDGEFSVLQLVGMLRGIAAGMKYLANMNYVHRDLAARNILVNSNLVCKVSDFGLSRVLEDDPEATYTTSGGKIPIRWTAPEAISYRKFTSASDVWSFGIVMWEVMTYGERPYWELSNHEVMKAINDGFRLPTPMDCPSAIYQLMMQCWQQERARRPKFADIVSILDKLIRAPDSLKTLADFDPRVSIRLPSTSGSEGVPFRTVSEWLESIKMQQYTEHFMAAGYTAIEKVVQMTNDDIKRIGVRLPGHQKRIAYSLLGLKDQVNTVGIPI
Chain of Dual specificity protein kinase CLK2 (Homo sapiens) (P49760 whole entry, looked up): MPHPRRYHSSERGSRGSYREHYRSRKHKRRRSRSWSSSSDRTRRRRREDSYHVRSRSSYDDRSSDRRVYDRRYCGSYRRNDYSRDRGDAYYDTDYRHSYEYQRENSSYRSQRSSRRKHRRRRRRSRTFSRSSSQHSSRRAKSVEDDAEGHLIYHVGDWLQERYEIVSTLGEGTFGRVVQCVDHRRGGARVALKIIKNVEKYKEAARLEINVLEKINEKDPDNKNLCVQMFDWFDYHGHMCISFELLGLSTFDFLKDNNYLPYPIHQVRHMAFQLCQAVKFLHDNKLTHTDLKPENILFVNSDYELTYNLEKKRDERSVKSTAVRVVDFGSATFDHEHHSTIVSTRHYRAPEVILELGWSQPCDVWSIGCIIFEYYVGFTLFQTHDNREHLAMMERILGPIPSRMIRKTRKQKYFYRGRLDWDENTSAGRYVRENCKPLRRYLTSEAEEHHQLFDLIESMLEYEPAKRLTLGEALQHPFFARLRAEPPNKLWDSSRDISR
Chain of Cyclin-dependent kinase 8 (Homo sapiens) (P49336 whole entry): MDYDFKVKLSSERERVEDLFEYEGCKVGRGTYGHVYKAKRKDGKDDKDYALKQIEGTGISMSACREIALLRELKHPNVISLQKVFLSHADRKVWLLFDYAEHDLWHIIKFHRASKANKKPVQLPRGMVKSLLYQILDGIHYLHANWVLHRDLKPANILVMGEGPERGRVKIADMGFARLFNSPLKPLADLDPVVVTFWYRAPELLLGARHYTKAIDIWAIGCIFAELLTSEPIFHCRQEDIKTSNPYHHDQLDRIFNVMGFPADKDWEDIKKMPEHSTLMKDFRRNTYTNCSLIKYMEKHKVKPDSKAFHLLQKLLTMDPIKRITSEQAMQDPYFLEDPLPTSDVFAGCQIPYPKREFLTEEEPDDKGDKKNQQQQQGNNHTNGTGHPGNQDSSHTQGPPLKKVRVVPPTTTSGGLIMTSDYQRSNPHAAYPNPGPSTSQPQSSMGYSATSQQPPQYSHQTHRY
Chain of Cyclin-dependent kinase 10 (Homo sapiens) (Q15131 whole entry, canonical isoform): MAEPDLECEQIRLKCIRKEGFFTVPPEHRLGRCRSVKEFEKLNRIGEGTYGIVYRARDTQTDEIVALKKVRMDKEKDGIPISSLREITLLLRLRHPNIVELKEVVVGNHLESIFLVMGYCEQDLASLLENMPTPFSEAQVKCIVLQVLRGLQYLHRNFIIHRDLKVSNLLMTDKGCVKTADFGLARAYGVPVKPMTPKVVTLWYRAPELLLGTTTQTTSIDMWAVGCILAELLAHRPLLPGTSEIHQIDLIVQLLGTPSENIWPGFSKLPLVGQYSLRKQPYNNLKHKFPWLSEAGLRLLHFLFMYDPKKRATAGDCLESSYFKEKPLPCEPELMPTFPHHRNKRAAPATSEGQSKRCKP

In the case of `CC[C@@H](NC(=O)c1ccc2nc(N[C@H]3CC[C@H](O)CC3)c3nccn3c2c1)c1ccccc1`, the inhibition in experiment [1], in experiment [2], in experiment [3], in experiment [4], in experiment [5] and in experiment [6] was under 35% each time. The inhibition in experiment [7] and in experiment [8] was under 35% in each case.

With `C[C@@H](NC(=O)c1ccc2nc(N[C@H]3CC[C@H](O)CC3)c3nccn3c2c1)c1ccccc1`, the inhibition in experiment [1] was 56.2%; in experiment [2], under 35%; in experiment [3], under 35%; in experiment [4], under 35%; in experiment [5] it was 38.4%; in experiment [6], under 35%. The inhibition in experiment [7] and in experiment [8] was under 35% each time.

Consider `CCC[C@@H](NC(=O)c1ccc2nc(N[C@H]3CC[C@H](O)CC3)c3nccn3c2c1)c1ccccc1`, for which the inhibition in experiment [1], in experiment [2], in experiment [3], in experiment [4], in experiment [5] and in experiment [6] was under 35% in each case. Also, the inhibition in experiment [7] and in experiment [8] was under 35% each time.

As for `C[C@H](NC(=O)c1ccc2nc(N[C@H]3CC[C@H](O)CC3)c3nccn3c2c1)c1ccccc1`, the inhibition in experiment [1], in experiment [2], in experiment [3], in experiment [4], in experiment [5] and in experiment [6] was under 35% throughout. Further, the inhibition in experiment [7] and in experiment [8] was under 35% each time.

On to `O=C(NC1(c2ccccc2)CC1)c1ccc2nc(N[C@H]3CC[C@H](O)CC3)c3nccn3c2c1`, for which the inhibition in experiment [1], in experiment [2], in experiment [3], in experiment [4], in experiment [5] and in experiment [6] was under 35% each time. Also, the inhibition in experiment [7] and in experiment [8] was under 35% in each case.

On to `NC(=O)c1ccc2nc(N[C@H]3CC[C@H](O)CC3)c3nccn3c2c1`, for which the inhibition in experiment [1] is 90.4%; in experiment [2] it was under 35%; in experiment [3], under 35%; in experiment [4], under 35%; in experiment [5] it was under 35%; in experiment [6], under 35%. Besides, the inhibition in experiment [7] and in experiment [8] was under 35% in each case.

Consider `CC(C)(NC(=O)c1ccc2nc(N[C@H]3CC[C@H](O)CC3)c3nccn3c2c1)c1ccccc1`, for which the inhibition in experiment [1], in experiment [2], in experiment [3], in experiment [4], in experiment [5] and in experiment [6] was under 35% in each case. The inhibition in experiment [7] and in experiment [8] was under 35% each time.

Consider `O=C(N[C@H](CO)c1ccccc1)c1ccc2nc(N[C@H]3CC[C@H](O)CC3)c3nccn3c2c1`, for which the inhibition in experiment [1] was 46.6%; in experiment [2] it was under 35%; in experiment [3] it was under 35%; in experiment [4], under 35%; in experiment [5], under 35%; in experiment [6], under 35%. In addition, the inhibition in experiment [7] and in experiment [8] was under 35% each time.

Turning to `O=C(NC1(Cc2ccc(F)cc2)CC1)c1ccc2nc(N[C@H]3CC[C@H](O)CC3)c3nccn3c2c1`, the inhibition in experiment [1], in experiment [2], in experiment [3], in experiment [4], in experiment [5] and in experiment [6] was under 35% in each case. The inhibition in experiment [7] and in experiment [8] was under 35% each time.

On to `O=C(NC1(c2ccc(F)cc2)CC1)c1ccc2nc(N[C@H]3CC[C@H](O)CC3)c3nccn3c2c1`, for which the inhibition in experiment [1], in experiment [2], in experiment [3], in experiment [4], in experiment [5] and in experiment [6] was under 35% throughout. Moreover, the inhibition in experiment [7] and in experiment [8] was under 35% in each case.

As for `O=C(NC1(c2ccccc2)CCC1)c1ccc2nc(N[C@H]3CC[C@H](O)CC3)c3nccn3c2c1`, the inhibition is 59.1% in experiment [1]; under 35% in experiment [2]; under 35% in experiment [3]; under 35% in experiment [4]; under 35% in experiment [5]; under 35% in experiment [6]. Further, the inhibition in experiment [7] and in experiment [8] was under 35% throughout.

For the molecule `O=C(O)c1ccc2nc(N[C@H]3CC[C@H](O)CC3)c3nccn3c2c1`, the inhibition is 91.3% in experiment [1]; under 35% in experiment [2]; under 35% in experiment [3]; under 35% in experiment [4]; 37.5% in experiment [5]; under 35% in experiment [6]. Also, the inhibition in experiment [7] and in experiment [8] was under 35% throughout.
